Data: ChEMBL document CHEMBL1201862, “PubChem BioAssay data set” (2004)
Active and inactive are the calls of the source.

Assays:
[1] = target: Eukaryotic translation initiation factor 4E (Mus musculus, UniProt P63073); assay: blockers of eIF4G binding by eIF4E – biochemical, TR-FRET, dose response (AID 855); assay type: functional;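 note: potency for disrupting eIF4E binding to eIF4GI seen as loss of FRET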
[2] = tested on: Streptococcus sp. 'group A'; assay: Streptococcus pyogenes SK(-)GAS viability under kanamycin – luminescence, BacTiterGlo, confirmation, counter-screen for streptokinase expression inhibitor project, dose response (AID 1900); assay type: functional, organism-based
Streptokinase A = target: T1, Streptokinase A (Streptococcus pyogenes serotype M1, UniProt P10520); assay: viability-normalized secreted streptokinase activity reduction – plasminogen activation absorbance, OD405, dose response (AID 1914); assay type: functional, Streptococcus pyogenes M1 GAS;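 note: secreted streptokinase activity via plasminogen activation per viability signal from cell pellet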
T1 sequence (P10520 whole entry): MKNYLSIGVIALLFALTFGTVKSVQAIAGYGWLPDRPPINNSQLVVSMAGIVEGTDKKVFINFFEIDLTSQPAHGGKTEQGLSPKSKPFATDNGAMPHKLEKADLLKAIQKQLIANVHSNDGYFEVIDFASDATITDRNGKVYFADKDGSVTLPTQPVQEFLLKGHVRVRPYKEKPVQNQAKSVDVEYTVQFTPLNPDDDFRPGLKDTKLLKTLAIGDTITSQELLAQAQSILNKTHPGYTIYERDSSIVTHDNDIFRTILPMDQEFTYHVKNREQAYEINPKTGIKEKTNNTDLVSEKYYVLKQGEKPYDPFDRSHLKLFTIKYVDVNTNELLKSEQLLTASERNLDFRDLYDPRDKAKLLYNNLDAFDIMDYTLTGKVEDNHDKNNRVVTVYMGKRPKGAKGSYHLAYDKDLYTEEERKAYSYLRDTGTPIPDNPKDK

Streptococcus = assay: GAS UMAA2166 growth inhibition – luminescence, BacTiterGlo, counter-screen for streptokinase expression inhibitor project, dose response (AID 1915); assay type: functional, organism-based;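 note: potency for reduction of bacterial viability or growth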
[3] = Vero E6 cell cytotoxicity, dose response, cytotoxicity control for non-replicating M. tuberculosis project, secondary assay (AID 492998); assay type: functional, VeroE6; conditions: Vero C1008
cells = assay type: functional
Large T antigen = Large T antigen (Simian virus 40, UniProt P03070); assay type: functional, Betapolyomavirus macacae;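 note: Confirmatory-stage PubChem screen for compounds that inhibit SV40 T antigen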
[4] = target: T2, Calpain-2 catalytic subunit (Sus scrofa, UniProt P43367); assay: m-calpain protease blockers, concentration series – biochemical, fluorogenic peptide substrate, dose response (AID 1420); assay type: functional
T2 sequence (P43367 whole entry): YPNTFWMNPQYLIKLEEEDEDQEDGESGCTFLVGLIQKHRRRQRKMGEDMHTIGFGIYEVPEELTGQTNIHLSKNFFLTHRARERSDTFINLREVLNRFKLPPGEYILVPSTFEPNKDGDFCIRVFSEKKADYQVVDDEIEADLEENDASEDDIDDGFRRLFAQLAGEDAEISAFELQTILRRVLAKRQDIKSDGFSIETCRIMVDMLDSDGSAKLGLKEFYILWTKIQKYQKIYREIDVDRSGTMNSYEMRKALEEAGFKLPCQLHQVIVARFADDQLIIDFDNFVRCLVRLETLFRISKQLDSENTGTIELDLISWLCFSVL

Aminopeptidase N = target: T3, Aminopeptidase N (Plasmodium falciparum FcB1/Columbia, UniProt O96935); assay: malaria alanyl aminopeptidase activity blockers – biochemical, fluorogenic H-Leu-NHMec substrate, 1536-well (AID 1445); parameters: species or system Plasmodium falciparum 3D7, 3D7
T3 sequence (O96935 whole entry): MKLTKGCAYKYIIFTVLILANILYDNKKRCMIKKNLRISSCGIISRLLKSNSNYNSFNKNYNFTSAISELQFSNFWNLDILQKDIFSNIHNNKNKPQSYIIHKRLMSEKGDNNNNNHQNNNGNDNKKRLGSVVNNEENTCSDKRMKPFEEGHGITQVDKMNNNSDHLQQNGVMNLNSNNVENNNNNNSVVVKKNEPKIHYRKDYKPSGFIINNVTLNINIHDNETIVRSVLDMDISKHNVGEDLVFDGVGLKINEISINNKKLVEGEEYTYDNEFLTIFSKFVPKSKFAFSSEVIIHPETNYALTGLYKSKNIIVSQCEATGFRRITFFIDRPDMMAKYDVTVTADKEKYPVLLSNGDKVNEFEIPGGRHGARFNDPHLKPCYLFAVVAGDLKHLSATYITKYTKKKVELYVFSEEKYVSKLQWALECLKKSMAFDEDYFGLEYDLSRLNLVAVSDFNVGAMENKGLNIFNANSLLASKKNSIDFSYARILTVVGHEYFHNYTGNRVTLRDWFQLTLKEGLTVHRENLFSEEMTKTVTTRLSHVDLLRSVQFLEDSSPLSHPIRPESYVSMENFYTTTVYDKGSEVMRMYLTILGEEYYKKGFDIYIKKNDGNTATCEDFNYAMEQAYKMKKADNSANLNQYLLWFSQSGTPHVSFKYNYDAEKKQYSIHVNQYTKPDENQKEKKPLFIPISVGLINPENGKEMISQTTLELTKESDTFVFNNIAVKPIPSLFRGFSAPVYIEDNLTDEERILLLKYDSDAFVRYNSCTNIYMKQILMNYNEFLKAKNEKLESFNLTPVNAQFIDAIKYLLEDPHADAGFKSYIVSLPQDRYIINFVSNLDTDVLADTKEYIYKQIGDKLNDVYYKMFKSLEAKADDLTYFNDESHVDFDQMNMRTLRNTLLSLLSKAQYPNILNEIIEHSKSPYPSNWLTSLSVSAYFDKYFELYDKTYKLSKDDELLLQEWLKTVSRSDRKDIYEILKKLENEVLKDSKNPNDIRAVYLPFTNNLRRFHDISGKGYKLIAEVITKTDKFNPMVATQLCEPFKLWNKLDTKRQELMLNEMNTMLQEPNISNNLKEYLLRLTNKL

[5] = HIV-1 Vif–A3G interaction blockers – biochemical, TR-FRET, GST-Vif 1-94, biotin-A3G peptide, dose response retest, primary screen (AID 1117319); assay type: functional;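 note: TR-FRET signal of purified GST-Vif binding a biotinylated A3G peptide; inhibitors lower the FRET signal by blocking Vif and A3G binding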
[6] = THP-1 cell cytotoxicity, dose response, cytotoxicity control for non-replicating M. tuberculosis project (AID 489025); assay type: functional
[7] = target: T4, Heat shock factor protein 1 (Mus musculus, UniProt P38532); assay: enhancement of HSF1-driven luciferase signal – cell-based, NIH3T3, luminescence, dose retest, confirmation (AID 435004); assay type: functional;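 note: stress induced by proteasome inhibitor MG132 added 30 min after compound; luciferase reporter driven by HSF1 response element in NIH3T3 cells; actives raise luminescence as potentiators of the MG132 stress response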
T4 sequence (P38532 whole entry): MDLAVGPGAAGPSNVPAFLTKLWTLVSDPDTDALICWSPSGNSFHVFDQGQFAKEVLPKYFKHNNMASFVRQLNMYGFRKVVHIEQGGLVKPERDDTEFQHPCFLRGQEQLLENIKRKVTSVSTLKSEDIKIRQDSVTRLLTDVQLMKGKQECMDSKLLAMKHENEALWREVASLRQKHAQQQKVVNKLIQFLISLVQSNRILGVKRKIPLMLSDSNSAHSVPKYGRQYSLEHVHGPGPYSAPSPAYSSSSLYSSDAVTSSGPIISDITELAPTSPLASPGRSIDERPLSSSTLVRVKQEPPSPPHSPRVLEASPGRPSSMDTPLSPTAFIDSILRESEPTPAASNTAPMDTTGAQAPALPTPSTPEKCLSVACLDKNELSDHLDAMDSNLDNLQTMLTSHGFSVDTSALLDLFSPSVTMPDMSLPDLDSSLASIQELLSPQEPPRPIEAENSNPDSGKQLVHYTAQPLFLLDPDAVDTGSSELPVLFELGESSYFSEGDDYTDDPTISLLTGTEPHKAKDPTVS

[8] = target: Glucose-6-phosphate 1-dehydrogenase (Homo sapiens, UniProt P11413); assay: inhibition of Homo sapiens G6PD, dose series – biochemical, fluorescence, selectivity assay for P. falciparum G6PD inhibitor project, dose response (AID 504792); assay type: functional
[9] = target: T5, Rac GTPase-activating protein 1 (Homo sapiens, UniProt Q9H0H5); assay: blockers of MgcRacGAP-driven Rac1 GTP hydrolysis – biochemical, ADP Hunter fluorescence, primary and confirmatory, confirmation (AID 624330); assay type: functional
T5 sequence (Q9H0H5 whole entry): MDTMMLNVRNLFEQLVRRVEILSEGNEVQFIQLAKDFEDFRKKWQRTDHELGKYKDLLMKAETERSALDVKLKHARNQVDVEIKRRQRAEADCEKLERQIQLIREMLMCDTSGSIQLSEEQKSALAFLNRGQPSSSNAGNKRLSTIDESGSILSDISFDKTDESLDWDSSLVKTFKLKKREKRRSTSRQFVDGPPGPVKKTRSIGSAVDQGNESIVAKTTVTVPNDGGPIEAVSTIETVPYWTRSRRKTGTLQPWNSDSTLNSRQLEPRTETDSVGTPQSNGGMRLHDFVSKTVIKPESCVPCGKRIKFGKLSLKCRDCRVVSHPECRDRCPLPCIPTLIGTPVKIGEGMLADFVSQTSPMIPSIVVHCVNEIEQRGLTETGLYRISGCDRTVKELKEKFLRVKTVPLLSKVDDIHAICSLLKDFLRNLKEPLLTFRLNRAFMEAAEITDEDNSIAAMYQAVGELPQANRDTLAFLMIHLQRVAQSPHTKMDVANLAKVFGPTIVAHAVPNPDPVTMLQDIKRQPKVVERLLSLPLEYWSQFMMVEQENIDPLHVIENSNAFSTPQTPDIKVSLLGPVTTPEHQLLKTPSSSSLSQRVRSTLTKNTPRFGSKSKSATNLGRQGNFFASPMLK

[10] = target: Induced myeloid leukemia cell differentiation protein Mcl-1 (Homo sapiens, UniProt Q07820); assay type: functional
[11] = target: FAD-linked sulfhydryl oxidase ALR (Homo sapiens, UniProt P55789); assay: ALR-catalysed DTT oxidation blockers – biochemical, H2O2 detection, luminescence, cherry-pick, dose response (AID 493248)
Vero = assay: viability of Vero cells under compound – cytotoxicity control for flavivirus capping enzyme inhibitors (AID 588742); assay type: functional; conditions: Chlorocebus sabaeus
Cytochrome P450 2C9 = Cytochrome P450 2C9 (Homo sapiens, UniProt P11712)
[12] = target: Voltage-dependent T-type calcium channel subunit alpha-1H (Homo sapiens, UniProt O95180); assay type: functional;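 note: channel activity triggered by adding a high calcium stimulation buffer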
Leucine aminopeptidase = target: T6, Leucine aminopeptidase (Plasmodium falciparum 3D7, UniProt Q8IL11); assay: P. falciparum M17LAP inhibitors, primary screen, biochemical, fluorogenic H-Leu-NHMec substrate, 1536-well (AID 1619); assay type: functional
T6 sequence (Q8IL11 whole entry): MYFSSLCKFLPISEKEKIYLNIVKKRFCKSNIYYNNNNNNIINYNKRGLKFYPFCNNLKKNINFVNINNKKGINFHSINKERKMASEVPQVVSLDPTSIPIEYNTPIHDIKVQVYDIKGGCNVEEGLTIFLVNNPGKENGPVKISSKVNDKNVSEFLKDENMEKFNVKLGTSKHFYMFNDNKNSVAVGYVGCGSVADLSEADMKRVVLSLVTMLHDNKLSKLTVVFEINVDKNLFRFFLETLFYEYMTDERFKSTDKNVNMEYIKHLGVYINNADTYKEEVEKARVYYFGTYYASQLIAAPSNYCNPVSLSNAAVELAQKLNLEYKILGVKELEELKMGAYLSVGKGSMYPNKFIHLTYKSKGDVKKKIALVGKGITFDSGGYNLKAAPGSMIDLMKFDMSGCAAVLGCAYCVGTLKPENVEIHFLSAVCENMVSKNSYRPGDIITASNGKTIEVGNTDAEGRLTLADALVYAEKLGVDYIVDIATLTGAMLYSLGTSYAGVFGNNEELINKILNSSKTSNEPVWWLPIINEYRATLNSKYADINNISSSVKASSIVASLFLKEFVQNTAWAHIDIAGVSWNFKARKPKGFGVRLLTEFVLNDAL

Sequence of Large T antigen (P03070 whole entry): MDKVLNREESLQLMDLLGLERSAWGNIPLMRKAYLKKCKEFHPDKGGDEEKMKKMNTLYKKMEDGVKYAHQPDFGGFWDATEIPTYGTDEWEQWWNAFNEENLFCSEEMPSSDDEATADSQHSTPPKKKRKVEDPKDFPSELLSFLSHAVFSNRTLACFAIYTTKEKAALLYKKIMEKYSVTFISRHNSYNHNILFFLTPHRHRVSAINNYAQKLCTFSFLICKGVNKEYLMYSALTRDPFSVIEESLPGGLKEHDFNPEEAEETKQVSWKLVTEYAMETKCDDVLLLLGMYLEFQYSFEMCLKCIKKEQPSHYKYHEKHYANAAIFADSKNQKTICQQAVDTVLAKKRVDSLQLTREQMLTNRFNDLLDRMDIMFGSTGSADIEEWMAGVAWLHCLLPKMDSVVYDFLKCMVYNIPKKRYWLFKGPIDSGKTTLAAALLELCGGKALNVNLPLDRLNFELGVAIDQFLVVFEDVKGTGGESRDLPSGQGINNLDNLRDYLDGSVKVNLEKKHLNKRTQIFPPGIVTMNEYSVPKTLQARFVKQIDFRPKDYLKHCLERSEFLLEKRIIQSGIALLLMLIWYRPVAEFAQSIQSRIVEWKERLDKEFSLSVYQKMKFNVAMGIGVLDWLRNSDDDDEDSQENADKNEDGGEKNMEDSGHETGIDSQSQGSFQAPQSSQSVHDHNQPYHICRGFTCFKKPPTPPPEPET
Sequence of Eukaryotic translation initiation factor 4E (P63073 whole entry): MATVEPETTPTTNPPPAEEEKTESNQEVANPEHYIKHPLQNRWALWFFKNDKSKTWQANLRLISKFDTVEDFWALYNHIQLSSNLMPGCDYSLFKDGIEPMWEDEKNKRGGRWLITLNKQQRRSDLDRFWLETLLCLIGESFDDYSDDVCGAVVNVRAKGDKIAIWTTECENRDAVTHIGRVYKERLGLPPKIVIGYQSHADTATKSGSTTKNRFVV
Sequence of Induced myeloid leukemia cell differentiation protein Mcl-1 (Q07820 whole entry): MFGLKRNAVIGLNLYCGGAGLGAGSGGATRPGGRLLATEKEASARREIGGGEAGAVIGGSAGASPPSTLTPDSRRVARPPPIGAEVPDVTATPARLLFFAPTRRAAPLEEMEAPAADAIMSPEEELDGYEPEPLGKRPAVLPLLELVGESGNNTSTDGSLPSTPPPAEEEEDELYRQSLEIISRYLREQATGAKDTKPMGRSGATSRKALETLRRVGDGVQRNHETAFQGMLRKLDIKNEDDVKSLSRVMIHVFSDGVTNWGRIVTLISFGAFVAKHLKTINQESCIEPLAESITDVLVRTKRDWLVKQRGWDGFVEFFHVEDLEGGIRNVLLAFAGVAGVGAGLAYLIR
Sequence of Voltage-dependent T-type calcium channel subunit alpha-1H (O95180 whole entry): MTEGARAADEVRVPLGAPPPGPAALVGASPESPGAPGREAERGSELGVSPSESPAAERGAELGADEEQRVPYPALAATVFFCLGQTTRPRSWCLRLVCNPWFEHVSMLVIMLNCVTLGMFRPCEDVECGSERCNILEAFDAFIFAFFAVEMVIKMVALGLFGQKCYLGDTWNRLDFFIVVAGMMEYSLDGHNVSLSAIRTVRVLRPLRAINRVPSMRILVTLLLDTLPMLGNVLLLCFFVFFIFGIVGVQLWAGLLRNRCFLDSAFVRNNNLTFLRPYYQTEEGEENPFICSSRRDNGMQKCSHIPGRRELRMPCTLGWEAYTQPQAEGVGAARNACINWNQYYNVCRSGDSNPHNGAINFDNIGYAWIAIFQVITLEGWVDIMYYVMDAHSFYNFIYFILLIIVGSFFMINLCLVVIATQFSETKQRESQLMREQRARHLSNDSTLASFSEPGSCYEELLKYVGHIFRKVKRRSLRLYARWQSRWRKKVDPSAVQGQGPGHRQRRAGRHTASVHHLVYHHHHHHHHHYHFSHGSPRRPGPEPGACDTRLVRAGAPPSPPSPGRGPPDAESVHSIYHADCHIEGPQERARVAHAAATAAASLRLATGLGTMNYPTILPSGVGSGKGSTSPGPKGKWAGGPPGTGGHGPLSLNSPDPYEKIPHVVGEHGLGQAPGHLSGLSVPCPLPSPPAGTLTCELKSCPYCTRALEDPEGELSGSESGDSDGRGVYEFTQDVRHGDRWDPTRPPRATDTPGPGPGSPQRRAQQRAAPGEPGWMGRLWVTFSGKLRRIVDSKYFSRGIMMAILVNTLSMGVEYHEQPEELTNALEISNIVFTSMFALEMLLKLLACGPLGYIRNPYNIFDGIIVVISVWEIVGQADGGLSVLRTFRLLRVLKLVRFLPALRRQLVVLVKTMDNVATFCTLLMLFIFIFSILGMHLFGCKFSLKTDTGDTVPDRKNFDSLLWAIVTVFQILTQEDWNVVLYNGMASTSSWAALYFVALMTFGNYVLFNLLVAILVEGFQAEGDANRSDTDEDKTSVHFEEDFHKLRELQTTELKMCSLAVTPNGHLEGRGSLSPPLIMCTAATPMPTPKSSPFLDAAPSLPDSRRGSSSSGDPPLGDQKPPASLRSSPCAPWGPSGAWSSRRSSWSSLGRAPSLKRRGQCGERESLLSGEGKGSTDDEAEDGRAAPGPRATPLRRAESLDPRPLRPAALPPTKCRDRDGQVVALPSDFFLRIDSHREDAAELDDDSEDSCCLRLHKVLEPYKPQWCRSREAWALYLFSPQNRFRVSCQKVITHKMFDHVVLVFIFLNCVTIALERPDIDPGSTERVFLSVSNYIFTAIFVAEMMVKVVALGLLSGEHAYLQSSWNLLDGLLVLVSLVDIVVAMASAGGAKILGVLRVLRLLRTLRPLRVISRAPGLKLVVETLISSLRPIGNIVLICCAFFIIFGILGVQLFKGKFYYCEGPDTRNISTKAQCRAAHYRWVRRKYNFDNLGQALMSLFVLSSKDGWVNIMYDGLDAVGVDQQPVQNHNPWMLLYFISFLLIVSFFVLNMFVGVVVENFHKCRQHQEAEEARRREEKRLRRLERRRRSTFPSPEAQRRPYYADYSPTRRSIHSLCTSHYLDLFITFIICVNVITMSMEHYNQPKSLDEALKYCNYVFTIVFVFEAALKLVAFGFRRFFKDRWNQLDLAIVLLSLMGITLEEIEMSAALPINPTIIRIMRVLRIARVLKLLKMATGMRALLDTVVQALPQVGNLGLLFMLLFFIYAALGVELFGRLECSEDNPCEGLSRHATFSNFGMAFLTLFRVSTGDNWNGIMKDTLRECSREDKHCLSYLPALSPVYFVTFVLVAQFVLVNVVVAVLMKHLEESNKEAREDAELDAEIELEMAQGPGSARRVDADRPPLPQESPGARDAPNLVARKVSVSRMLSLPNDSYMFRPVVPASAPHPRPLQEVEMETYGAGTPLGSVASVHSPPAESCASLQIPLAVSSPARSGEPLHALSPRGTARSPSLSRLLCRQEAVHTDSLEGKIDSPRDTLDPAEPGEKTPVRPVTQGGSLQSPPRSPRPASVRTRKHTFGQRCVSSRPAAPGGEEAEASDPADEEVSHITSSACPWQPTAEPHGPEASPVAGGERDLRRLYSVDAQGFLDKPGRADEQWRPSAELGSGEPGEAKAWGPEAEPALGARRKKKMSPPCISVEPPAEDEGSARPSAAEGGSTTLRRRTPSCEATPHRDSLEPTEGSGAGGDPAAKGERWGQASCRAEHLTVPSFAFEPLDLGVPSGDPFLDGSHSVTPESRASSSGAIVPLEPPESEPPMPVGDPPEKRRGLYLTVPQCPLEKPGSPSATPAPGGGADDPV
Sequence of Cytochrome P450 2C9 (P11712 whole entry): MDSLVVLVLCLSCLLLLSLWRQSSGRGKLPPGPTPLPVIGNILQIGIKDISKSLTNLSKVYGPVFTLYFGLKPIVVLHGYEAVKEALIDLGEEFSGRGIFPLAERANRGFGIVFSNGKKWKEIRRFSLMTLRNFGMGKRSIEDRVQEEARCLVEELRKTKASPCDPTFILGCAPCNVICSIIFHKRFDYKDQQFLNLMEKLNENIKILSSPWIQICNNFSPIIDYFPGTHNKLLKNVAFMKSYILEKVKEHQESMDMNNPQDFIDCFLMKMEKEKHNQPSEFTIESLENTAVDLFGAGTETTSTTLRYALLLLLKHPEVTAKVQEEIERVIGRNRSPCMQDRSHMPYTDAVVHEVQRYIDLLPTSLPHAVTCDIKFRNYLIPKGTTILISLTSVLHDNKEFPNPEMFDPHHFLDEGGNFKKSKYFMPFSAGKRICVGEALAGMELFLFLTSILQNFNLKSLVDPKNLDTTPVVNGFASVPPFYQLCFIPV
Sequence of Glucose-6-phosphate 1-dehydrogenase (P11413 whole entry): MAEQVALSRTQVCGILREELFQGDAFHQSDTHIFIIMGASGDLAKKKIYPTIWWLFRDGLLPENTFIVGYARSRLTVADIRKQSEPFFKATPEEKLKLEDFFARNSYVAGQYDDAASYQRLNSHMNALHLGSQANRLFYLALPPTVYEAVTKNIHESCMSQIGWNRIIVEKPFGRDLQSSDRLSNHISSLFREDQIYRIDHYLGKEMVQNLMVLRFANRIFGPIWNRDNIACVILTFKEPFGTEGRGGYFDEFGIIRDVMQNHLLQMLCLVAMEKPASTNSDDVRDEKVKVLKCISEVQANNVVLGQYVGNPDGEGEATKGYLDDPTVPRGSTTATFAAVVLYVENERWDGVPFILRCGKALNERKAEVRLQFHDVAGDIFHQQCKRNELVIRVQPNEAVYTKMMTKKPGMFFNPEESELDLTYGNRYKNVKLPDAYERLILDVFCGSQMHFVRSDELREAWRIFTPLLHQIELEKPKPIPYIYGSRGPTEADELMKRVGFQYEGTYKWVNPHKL
Sequence of FAD-linked sulfhydryl oxidase ALR (P55789 whole entry): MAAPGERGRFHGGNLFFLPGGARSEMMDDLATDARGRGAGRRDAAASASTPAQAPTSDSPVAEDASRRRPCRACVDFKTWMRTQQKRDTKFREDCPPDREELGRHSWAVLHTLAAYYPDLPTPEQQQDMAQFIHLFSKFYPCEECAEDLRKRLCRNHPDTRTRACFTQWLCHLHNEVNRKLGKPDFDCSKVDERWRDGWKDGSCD

Cc1cccc(-c2nnc(SCC3CNC(=O)O3)n2-c2ccc(Cl)cc2)c1 (centres undefined)
IC50 [1]: > 64 µM (inactive)

O=C(Nc1nccs1)c1sc2ccccc2c1Cl
EC50 [2]: 18.4 µM (active) | EC50 (Streptokinase A): > 150 µM (not active) | EC50 (Streptococcus): > 150 µM (not active) | CC50 [3]: > 20 µM (active) | IC50 (cells): 20.5 µM (active)

CCCCN1C(=O)/C(=C(/C#N)C(N)=O)c2ccccc21
IC50 (Large T antigen): 60.5 µM (active)

CCOC(=O)CSc1nc(C(C)C)nc2sc(C)c(C)c12
IC50 [4]: 2.34 µM (not active)

Cc1ccc(SCC(=O)c2c(C)nc3cc(C)ccn23)cc1
IC50 [4]: 6.79 µM (not active)

O=C(CN1CCC(NC(=O)c2cccc(F)c2)CC1)NCc1ccccc1F
IC50 (Aminopeptidase N): 23.2 µM (active) | IC50 [5]: > 100 µM (active)

CC1(C)CC(=O)C2=C(C1)OC(N)=C(C#N)C2C#Cc1ccccc1 (centres undefined)
CC50 [6]: 38.4 µM (active) | EC50 [7]: 38.3 µM (active)

O=C(c1ccc2ccccc2c1)N1CCN(c2ccc(O)cc2)CC1
IC50 (Large T antigen): 9.84 µM (active)

O=C1NC(=S)N(Cc2ccco2)C(=O)/C1=C\c1cccs1
IC50 [1]: 9.49 µM (active)

CC(=O)c1cccc(NC(=O)c2cnn(-c3ccccc3)c2C)c1
IC50 [8]: > 80 µM (inactive)

O=C(CNC1CCCC1)Nc1ccc(N2CCCCCC2)cc1
CC50 [3]: 18.1 µM (active) | IC50 (cells): 17.8 µM (active) | IC50 [9]: 75.8 µM (active)

O=[N+]([O-])C(=c1ccc2c(c1)N1C3=C(CCCC3)CC3CCCCC31N=2)[N+](=O)[O-] (centres undefined)
IC50 [10]: 1.95 µM (active)

N#Cc1ccc(-c2csc(NC3=NCCCCC3)n2)cc1
IC50 [1]: > 64 µM (inactive)

CCN(CC)c1ccc(NC(=O)c2cccc(F)c2)c(C)c1
IC50 (Large T antigen): 28.3 µM (active) | AC50 [11]: 1.19 µM (active) | CC50 (Vero): > 40 µM (active) | AC50 (Cytochrome P450 2C9): inconclusive

Cc1ccc2oc(=O)n(Cc3ccccc3OC(C)C)c2c1
IC50 [4]: > 50 µM (not active) | EC50 [12]: 8.57 µM (active)

O=C1CSC(=S)N1/N=C/c1ccc(O)c([N+](=O)[O-])c1
IC50 (Large T antigen): 26.8 µM (active) | IC50 [10]: 6.99 µM (active)

O=C(Nc1nc(=O)[nH]s1)c1ccccc1
IC50 (Leucine aminopeptidase): 18.1 µM (active) | IC50 [4]: > 50 µM (not active)

COc1cc(/C=N\Nc2cc(=O)n(C)c(=O)n2C)ccc1O
IC50 (Large T antigen): 23.7 µM (active) | IC50 [9]: 33.7 µM (active)

O=C(N/N=C/c1cc(Br)cs1)c1c[nH]c2ccccc12
IC50 [4]: 4.39 µM (not active)
